One assay concerns the target T1, human CB1 receptors (Homo sapiens, UniProt P21554).
T1 construct: (cDNA clone) CNR01L000
The experiment in a line: cAMP assay in HEK-293 cells, hCB1 agonist. The format is cell-based. Conditions: inhibition of forskolin-stimulated cAMP, HEK-293 cells; for EC50: read-out: hCB1 EC50 (cAMP ag). A digest of the protocol: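 Agonist EC50 taken as concentration giving half inhibition of forskolin-driven cAMP, normalized to forskolin maximum, from sigmoidal curves. Whole HEK-293 cells stably expressing hCB1, in HEPES/BSA-containing HBSS, exposed 30 min at 37° C. to compound with forskolin (90 uM in 3× dilution); cAMP read after lysis.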

Another assay deals with T2, human CB2 (hCB2) (Homo sapiens, UniProt P34972).
T2 construct: (cDNA clone) CNR0200000
T2 sequence (P34972 whole entry): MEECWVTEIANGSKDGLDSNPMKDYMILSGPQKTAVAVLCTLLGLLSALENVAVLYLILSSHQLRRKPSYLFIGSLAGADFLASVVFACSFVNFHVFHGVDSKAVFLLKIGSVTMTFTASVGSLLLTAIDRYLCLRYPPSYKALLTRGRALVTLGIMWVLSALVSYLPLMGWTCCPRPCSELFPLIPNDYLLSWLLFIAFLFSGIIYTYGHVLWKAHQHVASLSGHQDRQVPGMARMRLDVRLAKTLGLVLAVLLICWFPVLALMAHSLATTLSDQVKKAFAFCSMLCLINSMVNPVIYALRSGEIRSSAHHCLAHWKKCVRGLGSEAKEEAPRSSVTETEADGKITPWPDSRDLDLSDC
Kind of assay: 35S GTPγS binding assay, hCB2 agonist. It is filed as biochemical. In short, it runs like this:
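Agonist-stimulated [35S]GTPγS (0.1 nM) binding measured by scintillation proximity after 90 min at room temperature. Reaction buffer: 50 mM HEPES pH 7.4, 100 mM NaCl, 5 mM MgCl2, 0.001% saponin plus 20 uM GDP. Membranes (5 μg) came from transfected cells expressing hCB2 cDNA (pcDNA3.1+ vector).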

Another assay addresses T3, human CB2 receptors (Homo sapiens, UniProt P34972).
T3 construct: (cDNA clone) CNR0200000
The experiment in a line: cAMP assay in HEK-293 cells, hCB2 agonist. It is filed as cell-based. In short, it runs like this:
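Stable hCB2 HEK-293 cells in HBSS/10 mM HEPES/0.1% fatty-acid-free BSA incubated 30 min at 37° C with compound; forskolin 90 uM in 3× compound mix.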
(In general: Changes in cAMP serve as a functional read-out for many G protein-coupled receptors.)

[1] abbreviates: GTPγS agonist, HEK-293 membranes, read-out: hCB2 EC50 (GTPyS ag).
[2] abbreviates: inhibition of forskolin-stimulated cAMP, HEK-293 cells, read-out: hCB2 EC50 (cAMP ag).

Where two headings read alike, the source gives them in different places.

T1 sequence (P21554 whole entry): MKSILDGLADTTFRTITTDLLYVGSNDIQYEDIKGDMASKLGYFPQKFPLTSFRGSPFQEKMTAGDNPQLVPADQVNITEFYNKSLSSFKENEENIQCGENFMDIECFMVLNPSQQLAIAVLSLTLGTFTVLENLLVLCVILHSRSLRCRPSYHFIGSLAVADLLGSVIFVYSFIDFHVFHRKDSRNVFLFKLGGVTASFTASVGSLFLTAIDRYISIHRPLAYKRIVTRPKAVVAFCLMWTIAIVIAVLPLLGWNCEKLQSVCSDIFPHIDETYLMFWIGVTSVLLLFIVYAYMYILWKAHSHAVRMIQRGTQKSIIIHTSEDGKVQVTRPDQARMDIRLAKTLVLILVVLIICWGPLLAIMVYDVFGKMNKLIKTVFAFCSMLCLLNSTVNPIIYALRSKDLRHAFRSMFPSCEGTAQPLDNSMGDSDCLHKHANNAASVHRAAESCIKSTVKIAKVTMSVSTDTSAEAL
T3 sequence (P34972 whole entry): as the sequence (P34972 whole entry) above

The term EC50 denotes the concentration that produces a half-maximal response. As to `Cc1ccc(C(O)c2cc3cc(C)n(CCN4CCOCC4)c3s2)cn1` (stereo not drawn) [Compound 125, (5-Methyl-6-(2-morpholinoethyl)-6H-thieno[2,3-b]pyrrol-2-yl)(6-methylpyridin-3-yl)methanol], on human CB1 receptors, the “hCB1 EC50 (cAMP ag, nM)” value was “NS (NS means “Not Significant,” which means less than 30% agonist activity when compared to the positive control.)”. The EC50 at human CB2 (hCB2) and on human CB2 receptors was 100 to 1000 nM in each case.
As to `Cc1cc2cc(C(=O)c3cccc(Cl)c3Cl)sc2n1CCN1CCOCC1` [Compound 1, (2,3-dichlorophenyl)(5-methyl-6-(2-morpholinoethyl)-6H-thieno[2,3-b]pyrrol-2-yl)methanone], the concentration for a half-maximal effect (EC50) was more than 10000 nM at human CB1 receptors, less than 100 nM at human CB2 (hCB2) and less than 100 nM on human CB2 receptors.
With `Cc1cc2cc(C(=O)c3cc(Cl)ccc3Cl)sc2n1CCN1CCOCC1` [Compound 35, (2,5-Dichlorophenyl)(5-methyl-6-(2-morpholinoethyl)-6H-thieno[2,3-b]pyrrol-2-yl)methanone], the “hCB1 EC50 (cAMP ag, nM)” value at human CB1 receptors is listed as “NS (NS means “Not Significant,” which means less than 30% agonist activity when compared to the positive control.)”. Further, the EC50 on human CB2 (hCB2) and at human CB2 receptors was less than 100 nM throughout.
Turning to `CCOC(=O)CCn1c(C)cc2cc(C(=O)c3ccc(OC)cc3)sc21` [Compound 72, Ethyl 3-(2-(4-methoxybenzoyl)-5-methyl-6H-thieno[2,3-b]pyrrol-6-yl)propanoate], the “hCB1 EC50 (cAMP ag, nM)” value on human CB1 receptors is “NS (NS means “Not Significant,” which means less than 30% agonist activity when compared to the positive control.)”. Besides, the EC50 at human CB2 (hCB2) and at human CB2 receptors was 100 to 1000 nM in each case.
As for `COc1ccc(C(=O)c2cc3cc(C)n(CCN4CCCCC4)c3s2)c(F)c1` [Compound 98, (2-Fluoro-4-methoxyphenyl)(5-methyl-6-(2-(piperidin-1-yl)ethyl)-6H-thieno[2,3-b]pyrrol-2-yl)methanone], on human CB1 receptors, the “hCB1 EC50 (cAMP ag, nM)” value is “NS (NS means “Not Significant,” which means less than 30% agonist activity when compared to the positive control.)”. The EC50 on human CB2 (hCB2) and at human CB2 receptors was less than 100 nM throughout.
Turning to `Cc1cc2cc(C(=O)c3ccc(F)cc3Cl)sc2n1CCN1CCOCC1` [Compound 64, (2-Chloro-4-fluorophenyl)(5-methyl-6-(2-morpholinoethyl)-6H-thieno[2,3-b]pyrrol-2-yl)methanone], the EC50 was 100 to 1000 nM at human CB1 receptors, less than 100 nM on human CB2 (hCB2) and less than 100 nM on human CB2 receptors.
`Cc1cc2cc(C(=O)c3ccc(Cl)c(Cl)c3)sc2n1CCN1CCOCC1` [Compound 9, (3,4-Dichlorophenyl)(5-methyl-6-(2-morpholinoethyl)-6H-thieno[2,3-b]pyrrol-2-yl)methanone]: the “hCB1 EC50 (cAMP ag, nM)” value at human CB1 receptors is “NS (NS means “Not Significant,” which means less than 30% agonist activity when compared to the positive control.)”. For the same molecule, the EC50 at human CB2 (hCB2) lay in the range of 1000 to 10000 nM; at human CB2 receptors, 100 to 1000 nM.
The corresponding values for `Cc1cc2cc(C(=O)c3ccc(OC(C)C)cc3)sc2n1CCN1CCOCC1` [Compound 111, (4-Isopropoxyphenyl)(5-methyl-6-(2-morpholinoethyl)-6H-thieno[2,3-b]pyrrol-2-yl)methanone] are “NS (NS means “Not Significant,” which means less than 30% agonist activity when compared to the positive control.)”, 100 to 1000 nM and less than 100 nM.
For the molecule `C=Cn1c(C)cc2cc(C(=O)c3cccc(Cl)c3Cl)sc21` [Comp 29], the “hCB1 EC50 (cAMP ag, nM)” value on human CB1 receptors is “NS (NS means “Not Significant,” which means less than 30% agonist activity when compared to the positive control.)”. Besides, the EC50 on human CB2 (hCB2) and at human CB2 receptors was 100 to 1000 nM throughout.
In the case of `COc1ccc(C(=O)c2cc3cc(C)n(CCN4CCCC4)c3s2)cc1` [Compound 83, (4-Methoxyphenyl)(5-methyl-6-(2-(pyrrolidin-1-yl)ethyl)-6H-thieno[2,3-b]pyrrol-2-yl)methanone], the EC50 is 1000 to 10000 nM at human CB1 receptors, 100 to 1000 nM at human CB2 (hCB2) and less than 100 nM on human CB2 receptors.
In the case of `COc1ccc(C(=O)c2cc3cc(C)n(S(=O)(=O)N(C)C)c3s2)cn1` [Compound 113, 2-(6-Methoxynicotinoyl)-N,N,5-trimethyl-6H-thieno[2,3-b]pyrrole-6-sulfonamide], the “hCB1 EC50 (cAMP ag, nM)” value on human CB1 receptors is reported as “NS (NS means “Not Significant,” which means less than 30% agonist activity when compared to the positive control.)”. For the same molecule, the EC50 at human CB2 (hCB2) and at human CB2 receptors was less than 100 nM each time.
Consider `COc1ccccc1C(=O)c1cc2cc(C)n(CCN3CCOCC3)c2s1` [Compound 13, (2-Methoxyphenyl)(5-methyl-6-(2-morpholinoethyl)-6H-thieno[2,3-b]pyrrol-2-yl)methanone], for which the values for the EC50 at human CB1 receptors, at human CB2 (hCB2) and at human CB2 receptors were 100 to 1000 nM, less than 100 nM and less than 100 nM, respectively.
With `Cc1cc2cc(C(=O)c3cccc(Cl)c3Cl)sc2n1CCC1CCOCC1` [Compound 18, (2,3-Dichlorophenyl)(5-methyl-6-(2-(tetrahydro-2H-pyran-4-yl)ethyl)-6H-thieno[2,3-b]pyrrol-2-yl)methanone], the results for the EC50 at human CB1 receptors, at human CB2 (hCB2) and on human CB2 receptors were 100 to 1000 nM, less than 100 nM and less than 100 nM, respectively.
On to `COc1ccc(C(=O)c2cc3cc(C)n(CCN4CCCCC4)c3s2)cn1` [Compound 117, (6-Methoxypyridin-3-yl)(5-methyl-6-(2-(piperidin-1-yl)ethyl)-6H-thieno[2,3-b]pyrrol-2-yl)methanone], for which, on human CB1 receptors, the “hCB1 EC50 (cAMP ag, nM)” value is on record as “NS (NS means “Not Significant,” which means less than 30% agonist activity when compared to the positive control.)”. Further, the EC50 on human CB2 (hCB2) and at human CB2 receptors was less than 100 nM throughout.
For the molecule `Cc1cc2cc(C(=O)c3cccc(Cl)c3Cl)sc2n1CCN1CCCC1` [Compound 28, (2,3-Dichlorophenyl)(5-methyl-6-(2-(pyrrolidin-1-yl)ethyl)-6H-thieno[2,3-b]pyrrol-2-yl)methanone], at human CB1 receptors, the “hCB1 EC50 (cAMP ag, nM)” value is “NS (NS means “Not Significant,” which means less than 30% agonist activity when compared to the positive control.)”. Also, the EC50 on human CB2 (hCB2) and at human CB2 receptors was less than 100 nM throughout.
On to `Cc1cc2cc(C(=O)c3cccc(F)c3F)sc2n1CCN1CCOCC1` [Compound 8, (2,3-Difluorophenyl)(5-methyl-6-(2-morpholinoethyl)-6H-thieno[2,3-b]pyrrol-2-yl)methanone], for which, on human CB1 receptors, the “hCB1 EC50 (cAMP ag, nM)” value is reported as “NS (NS means “Not Significant,” which means less than 30% agonist activity when compared to the positive control.)”. The EC50 at human CB2 (hCB2) is 100 to 1000 nM; on human CB2 receptors it was less than 100 nM.
The corresponding values for `COc1ccc(C(=O)c2cc3cc(C)n(CCCNS(N)(=O)=O)c3s2)cc1` [Compound 105] are “NS (NS means “Not Significant,” which means less than 30% agonist activity when compared to the positive control.)”, 100 to 1000 nM and 1000 to 10000 nM.
Consider `COc1ccc(C(=O)c2cc3cc(C)n(CCCNC(C)(C)C)c3s2)cc1` [Compound 108, (6-(3-(tert-Butylamino)propyl)-5-methyl-6H-thieno[2,3-b]pyrrol-2-yl)(4-methoxyphenyl)methanone], for which, on human CB1 receptors, the “hCB1 EC50 (cAMP ag, nM)” value is “NS (NS means “Not Significant,” which means less than 30% agonist activity when compared to the positive control.)”. Besides, the EC50 lay within 100 to 1000 nM at human CB2 (hCB2) and 1000 to 10000 nM on human CB2 receptors.
Regarding `Cc1cc2cc(C(=O)c3ccc(N(C)C)cc3)sc2n1CCN1CCOCC1` [Compound 59, (4-(Dimethylamino)phenyl)(5-methyl-6-(2-morpholinoethyl)-6H-thieno[2,3-b]pyrrol-2-yl)methanone], the “hCB1 EC50 (cAMP ag, nM)” value at human CB1 receptors is “NS (NS means “Not Significant,” which means less than 30% agonist activity when compared to the positive control.)”. The EC50 at human CB2 (hCB2) and on human CB2 receptors was 100 to 1000 nM in each case.
For `COc1ccc(C(O)c2cc3cc(C)n(CCN4CCOCC4)c3s2)cc1` (stereo not drawn) [Compound 100, (4-Methoxyphenyl)(5-methyl-6-(2-morpholinoethyl)-6H-thieno[2,3-b]pyrrol-2-yl)methanol], the “hCB1 EC50 (cAMP ag, nM)” value at human CB1 receptors is given as “NS (NS means “Not Significant,” which means less than 30% agonist activity when compared to the positive control.)”. Also, the EC50 on human CB2 (hCB2) (setting [1]) and at human CB2 receptors (setting [2]) was less than 100 nM each time.
As for `CCc1ccc(C(=O)c2cc3cc(C)n(CCN4CCOCC4)c3s2)cc1` [Compound 122, (4-Ethylphenyl)(5-methyl-6-(2-morpholinoethyl)-6H-thieno[2,3-b]pyrrol-2-yl)methanone], the values for the EC50 at human CB1 receptors, on human CB2 (hCB2) and on human CB2 receptors were 1000 to 10000 nM, less than 100 nM and less than 100 nM, respectively.
`COc1ccc(C(=O)c2cc3cc(C)n(Cc4ccccc4)c3s2)c(Cl)c1` [Compound 114, (6-Benzyl-5-methyl-6H-thieno[2,3-b]pyrrol-2-yl)(2-chloro-4-methoxyphenyl)methanone]: the EC50 on human CB1 receptors was 1000 to 10000 nM; on human CB2 (hCB2) (setting [1]), less than 100 nM; on human CB2 receptors (setting [2]) it was 1000 to 10000 nM.
For `COc1ccc(C(=O)c2cc3cc(C)n(CCN4CCOCC4)c3s2)c(C)c1` [Compound 88, (4-Methoxy-2-methylphenyl)(5-methyl-6-(2-morpholinoethyl)-6H-thieno[2,3-b]pyrrol-2-yl)methanone], the EC50 at human CB1 receptors was 100 to 1000 nM; on human CB2 (hCB2), less than 100 nM; at human CB2 receptors, less than 100 nM.

Values taken from patent US20130029970A1 (priority 2009, published 2013).
